Results as given in article PMC10946813, “Lipophilicity Modulations by Fluorination Correlate with Membrane Partitioning” (Angewandte Chemie (International Ed. in English), 2023).
Where “and” joins values, the source holds several entries; their conditions need not be identical. Identical values can stand only once.

What was measured:
[1] = Molar membrane partition coefficient (logKp) by 19F MAS solid-state NMR in lipid vesicles; assay type: physicochemical; conditions: Table S2, POPC
Method: The principle of the method is explained in Figure 2 (with a detailed description of the protocol provided in Supporting Information). The method utilizes ^19F MAS NMR to quantitate the partitioning of the fluorinated compounds between the aqueous and membrane phases. […] Experimentally, it was determined that only moderate spinning speeds (10 kHz) and low power decoupling (10 kHz decoupling field) were required to obtain well resolved spectra, even at these high magnetic fields; with motional processes within the liquid crystalline lipid bilayer averaging the potentially large chemical shielding anisotropy and dipolar couplings experienced by the fluorine spins. The application of low spinning speeds and radiofrequency decoupling fields also reduces sample heating, whilst minimising the pelleting of the vesicles against the rotor wall. The absence of any discernable sidebands, resulting from incomplete averaging, simplifies the analysis, as this precludes the need to integrate the entire family of sidebands.
With knowledge of the number of water ( nW ) and lipid ( nM ) molecules, the molar partition coefficient ( KP) is readily determined.
To determine how the concentration of the compound and bilayer hydration influenced the measured logK P, a systematic study of these parameters was undertaken for compound 10 (Figure S2, Table S1). Samples were prepared where the lipids were hydrated at levels between 10 to 30 %(w/v), a range widely used to study the physical properties of lipid bilayers. […] On the basis of the reproducibility of these figures, all subsequent experiments were conducted at 20 % (w/v) hydration with a compound/lipid ratio of 0.033. In addition to providing excellent reproducibility, these concentrations afforded good signal to noise ratios with sensible spectral acquisition times. […]
to the r.f. field strength then care should be taken to ensure that the two compounds are similarly excitated. Quantitative data also requires the complete relaxation of the nuclei between scans. For the studies reported here, saturation recovery measurements were performed on each system, with spectra then acquired with a recycle delay of five times T1. It […]
shorter T1 values than that of the substrate in aqueous solution, mirroring the observation […]
In addition to more general NMR considerations, care must also be exercised to ensure that the signal intensity, particularly that of the membrane bound state, is not influenced by anisotropic interactions that may be present. Due to the molecular dynamics within the lipid bilayer, many of these interactions are already motionally averaged facilitating their removal.
The application of low-power (10 kHz) SPINAL-64 decoupling[2] is sufficient to remove the weak scalar and dipolar couplings that are present within the fluid lipid bilayer. Care was taken […]
linebroadening due to temperature dependent changes in chemical shift. Similarly, data was acquired with both 5 and 10 kHz MAS and no change in isotropic chemical shift was observed […]
However, increasing the spinning speed from 5 to 10 kHz ensured complete averaging the residual chemical shielding anisotropy and other anisotropic contrbutions to the spectra and the presence of a single isotropic resonance for each population. The absence of any discernable sidebands in spectra acquired at 10 kHz allows the accurate integration of the signal intensity without the need to integrate the entire family of sidebands which would be required for a quantitative analysis.
Care should be taken when extending this to other compounds where the anisotropy may larger, either due to a larger chemical shielding anisotropy at the fluorine site studied or the application of higher magnetic as this would complicate the signal integration.
Prior to Fourier Transform, data was processed with 1Hz exponential line broadening and zero filled with 16384 points. The resulting spectra was phased and base line corrected. All processing was performed in Matlab using matNMR[5]. […]

[2] = Octanol-water partition coefficient (logP OW), 19F NMR method with reference compound
[3] = individual experiment (octanol/water), one of triplicate
[4] = octanol/water, Average logP, triplicate
[5] = octanol/water, Error (mean logP with standard deviation), triplicate, three decimals
[6] = glycosides, first listed 19F resonance
[7] = glycosides, second listed 19F resonance

For `OC[C@H](F)C[C@@H](F)CO` (single isomer, unassigned) [ent-15], the “Molar Partition Coefficient (logKP)” value ([1]; one 19F resonance evaluated) was 1.82 ± 0.06.

With `OCC1CC1(F)F` (centres unmarked) [compound 1] the “Molar Partition Coefficient (logKP)” value ([1]; one 19F resonance evaluated) was 2.54 ± 0.08.

With `OC[C@H]1C[C@@H]1F` [compound 2] the “Molar Partition Coefficient (logKP)” value ([1]; one 19F resonance evaluated) was 2.17 ± 0.05.

For `OCC1(F)CC1` [compound 3], the “Molar Partition Coefficient (logKP)” value ([1]; one 19F resonance evaluated) was 2.08 ± 0.01.

In the case of `OC[C@@H]1C[C@@H]1F` [compound 4], the “Molar Partition Coefficient (logKP)” value ([1]; one 19F resonance evaluated) is reported as 2.02 ± 0.04.

For `CO[C@H]1O[C@H](CF)[C@@H](F)[C@H](O)[C@H]1O` [compound 5], the logP [2, 3] was -0.698 and -0.708 and -0.717, the logP [2, 4] was -0.71 and the logP [2, 5] was -0.707. The “Molar Partition Coefficient (logKP)” value [1, 6] was 1.98 ± 0.02 and the “Molar Partition Coefficient (logKP)” value [1, 7] was 1.98 ± 0.03.

In the case of `CO[C@@H]1O[C@H](CF)[C@@H](F)[C@H](O)[C@H]1O` [compound 6], the logP [2, 3] is reported as -1.036 and -1.054 and -1.053, the logP [2, 4] is reported as -1.05 and the logP [2, 5] is reported as -1.05. For the same molecule, the “Molar Partition Coefficient (logKP)” value [1, 6] was 1.93 ± 0.16 and the “Molar Partition Coefficient (logKP)” value [1, 7] was 1.95 ± 0.15.

With `CO[C@H]1O[C@H](CF)[C@H](F)[C@H](O)[C@H]1O` [compound 7, methyl 4,6-dideoxy-4,6-difluoro-α-D-galactopyranoside] the logP [2, 3] was -0.905 and -0.898, the logP [2, 4] was -0.9 and the logP [2, 5] was -0.902. The “Molar Partition Coefficient (logKP)” value [1, 6] was 1.80 ± 0.05 and the “Molar Partition Coefficient (logKP)” value [1, 7] was 1.87 ± 0.14.
